In paper PMC6377466 (Proceedings of the National Academy of Sciences of the …, 2019):

What was measured:
KRAS166^G12V = molecular target: T1, KRAS166^G12V (Homo sapiens, UniProt P01116, G12V); test: SPR screen and waterLOGSY NMR; assay type: binding
T1 construct: gene KRAS; KRAS166

HRAS^G12V = molecular target: T2, HRAS^G12V (Homo sapiens, UniProt P01112, G12V); test: cell BRET RAS-effector interaction assay, dose response […]; assay type: cell-based
T2 construct: full-length (RLuc8 fusion); with CRAF

NRAS^Q61H = molecular target: T3, NRAS^Q61H (Homo sapiens, UniProt P01111, Q61H); test: as above; assay type: cell-based
T3 construct: full-length (RLuc8 fusion); with CRAF

SMILES | SPR screen and waterLOGSY NMR (KRAS166^G12V) | cell BRET RAS-effector interaction assay, dose response 5-20 μM (HRAS^G12V) | cell BRET RAS-effector interaction assay, dose response 5-20 μM (NRAS^Q61H)
COc1cccc(-c2cccc(CC3(C(=O)NCCCn4ccnc4)CCOCC3)c2)c1 [PPIN-2] | PPIN-1 and -2 were confirmed to bind to KRAS166^G12V | – | –
CCCN1CCN(C(=O)c2c[nH]cn2)CC(Cc2ccc(-c3ccccc3)cc2)C1=O (stereo not shown) [PPIN-1] | PPIN-1 and -2 were confirmed to bind to KRAS166^G12V | – | –
COc1cccc(-c2ccc(Nc3ccc(CN(C)C)cc3)c(OC)c2F)c1 [Ch-3] | – | Ch-3 interferes with NRAS and HRAS isoforms using the BRET biosensor assay | Ch-3 interferes with NRAS and HRAS isoforms using the BRET biosensor assay
